Laboratory results from patent publication US9079853B2, “Isatin compounds, compositions and methods for treatment of degenerative diseases and disorders” (MUSC FOUNDATION FOR RESEARCH DEVELOPMENT, priority 2013, dated 2015).

Key:
661W or C6 cells [1] = experiment: XF FCCP-uncoupled oxygen consumption rate assay (IBMX challenge); type: cell-based; conditions: 1 h pretreatment, 600 μM IBMX, 24 h, read-out: XF FCCP OCR (% Ctrl); for activity at 0.0008 µM: compound 800 pM; for activity at 0.01 µM: compound 10 nM; for activity at 0.001 µM: compound 1 nM;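 as to all read-outs here: values normalized to the vehicle control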
Description: The XF FCCP-uncoupled oxygen consumption rate assay assesses mitochondrial capacity by measuring cellular respiration. It was shown that the maximum FCCP-uncoupled oxygen consumption rate (OCR) was a good estimate of maximal mitochondrial capacity (Beeson 2010) and that IBMX treatment of 661W or C6 cells for 24 h caused a loss in maximal uncoupled OCR (Perron 2013). Thus, cells were pretreated with the exemplified compounds for 1 h, added 600 μM IBMX and then measured the uncoupled rate after 24 h. In brief, the OCR measurements were performed using a Seahorse Bioscience XF instrument (Seahorse Bioscience, Billerica, Md.), as previously published (Perron 2013). O2 leakage through the plastic sides and bottom of the plate was accounted for using the AKOS algorithm in the XF software package. Cells were plated on 96- or 24-well custom plates designed for use in the XF and grown to confluency in DMEM+5% FBS (48 h). The medium was then replaced with DMEM+1% FBS for 24 h, along with any treatments.

661W or C6 cells [2] = experiment: MTT assay, protection against calcium-ionophore A23187; type: cell-based; conditions: 1 μM A23187, 24 h
Description: The compound 3-(4,5-Dimethylthiazol-2-yl)-2,5-diphenyltetrazolium bromide (MTT) is a tetrazolium ion that is reduced to a blue formazan dye via several families of NAD(P)H-dependent oxidoreductases. Formation of the formazan dye from MTT or other related tetrazolium dyes are commonly used as a viability assay even though, in fact, the assay is a metabolic capacity assay.
In this assay, 661W or C6 cells were maintained in DMEM supplemented with 10% FBS. 100 μL of 70,000 cells/mL cells were seeded into each well of 96 well plates using DMEM supplemented with 5% FBS. Cells were then allowed to grow to confluency for 48 hours. The compounds of the invention were added in 2 μL media and calcium-ionophore A23187 was then added in 1 μL for a final concentration of 1 μM and after 24 h, 20 μL of […] MTT were added to each well and the cells were incubated for another 4 h after which 100 μL of 1% SDS in 0.01M aqueous HCl were added to each well and the plates were incubated overnight. Absorbance was measured at […] (background correction). The 1 μM ionophore A23187 caused about 50% loss in MTT signal at 24 h. Protection was calculated as the increase in absorbance of treatment groups normalized to the vehicle control.

Balb/c mice = experiment: Light model assay (constant light damage, eyedrops); type: in vivo, mouse; conditions: 1 mM eyedrops once per day; continuous light 7 days; rows of photoreceptors
Source text: The light model assay is generally accepted as a model of age related macular degeneration (AMD). […] In particular, oxidative damage has been detected by immunohistochemistry, detecting the presence of oxidized and tyrosine-phosphorylated proteins as well as the upregulation of endogenous antioxidants such as thioredoxin and glutathione peroxidase. […] Additional indirect evidence for the involvement of oxidative stress in photoreceptor degeneration has been provided by treatment of photodamaged retinas with antioxidants such as dimethylthiourea, or the treatment of N-methyl-N-nitrosourea (MNU)-challenged rats with the antioxidant DHA.
The light model assay was used to further test the therapeutic potential of the compounds of the invention. Photoreceptors from albino animals are very sensitive to constant light, lacking the RPE pigment to protect them. Thus, Balb/c mice were exposed to continuous light for 7 days, which caused loss of about 50% of the photoreceptor cells as measured via histology. To test the potential therapeutic efficacy, eyedrops were formulated in 0.1% Bij 35 in […], applied once or twice daily throughout the period of light exposure, and their effect assessed on the light-induced degeneration of photoreceptor cells morphologically and electrophysiologically, 10 days after the onset of the CL exposure.

SMILES | MTT, % protection (661W or C6 cells [2]; compound 1 nM) | activity at 0.001 µM (661W or C6 cells [1]) [%] | further results
CCCN1C(=O)C(O)(Cc2ccc(OC)cn2)c2cc(C)ccc21 (stereo not shown) [Example 6, 3-hydroxy-3-((5-methoxypyridin-2-yl)methyl)-5-methyl-1-propylindolin-2-one] |  |  | activity at 0.0008 µM (661W or C6 cells [1]): 67%; MTT, % protection (661W or C6 cells [2]; compound 500 pM): 68.8%,
C#CCCCN1C(=O)C(O)(CC(=O)c2c[nH]c3ccccc23)c2cc(C)ccc21 (stereo not shown) [Example 13, 3-(2-(1H-indol-3-yl)-2-oxoethyl)-3-hydroxy-5-methyl-1-(pent-4-yn-1-yl)indolin-2-one] |  |  | MTT, % protection (661W or C6 cells [2]; compound 100 nM): 79.4%,; LD Protection (# of rows) (Balb/c mice): 5.44 # of rows
CCCN1C(=O)C(O)(CC(=O)c2ccc(OC)nc2OC)c2cc(Cl)ccc21 (stereo not shown) [Example 22, 5-chloro-3-(2-(2,6-dimethoxypyridin-3-yl)-2-oxoethyl)-3-hydroxy-1-propylindolin-2-one] |  |  | activity at 0.01 µM (661W or C6 cells [1]): 76%; MTT, % protection (661W or C6 cells [2]; compound 10 nM): 71.8%,
CCCN1C(=O)C(O)(CC(=O)c2ccccn2)c2cc(Cl)ccc21 (stereo not shown) [Example 23, 5-chloro-3-hydroxy-3-(2-oxo-2-(pyridin-2-yl)ethyl)-1-propylindolin-2-one] |  |  | activity at 0.01 µM (661W or C6 cells [1]): 73%; MTT, % protection (661W or C6 cells [2]; compound 10 nM): 73%,
CCCN1C(=O)C(O)(CC(=O)c2c[nH]c3ccccc23)c2cc(C)ccc21 (stereo not shown) [Example 24, 3-(2-(1H-indol-3-yl)-2-oxoethyl)-3-hydroxy-5-methyl-1-propylindolin-2-one] | 69%, |  | activity at 0.01 µM (661W or C6 cells [1]): 59%
CCCN1C(=O)C(O)(CC(=O)c2ccc(OC)nc2OC)c2cc(C)ccc21 (stereo not shown) [Example 25, 3-(2-(2,6-dimethoxypyridin-3-yl)-2-oxoethyl)-3-hydroxy-5-methyl-1-propylindolin-2-one] | 73.8%, | 57 | 
CCCN1C(=O)C(O)(CC(=O)c2cccc(OC)n2)c2cc(C)ccc21 (stereo not shown) [Example 26, 3-hydroxy-3-(2-(6-methoxypyridin-2-yl)-2-oxoethyl)-5-methyl-1-propylindolin-2-one] |  | 62 | MTT, % protection (661W or C6 cells [2]; compound 10 nM): 83.8%,
COc1cccc(C(=O)CC2(O)C(=O)N(CCCN=[N+]=[N-])c3ccc(C)cc32)n1 (stereo not shown) [Example 28, 1-(3-azidopropyl)-3-hydroxy-3-(2-(6-methoxypyridin-2-yl)-2-oxoethyl)-5-methylindolin-2-one] |  |  | MTT, % protection (661W or C6 cells [2]; compound 1 μM): 65.9%,; LD Protection (# of rows) (Balb/c mice): 5.55 # of rows
CCCN1C(=O)C(O)(CC(=O)c2cccc(OC)n2)c2cc(Cl)cc(Cl)c21 (stereo not shown) [Example 30, 5,7-dichloro-3-hydroxy-3-(2-(6-methoxypyridin-2-yl)-2-oxoethyl)-1-propylindolin-2-one] | 69%, | 59 | 
COc1cc(CC2(OC(=O)c3ccccc3)C(=O)N(CC(C)C)c3ccc(Cl)cc32)cc(OC)c1OC (stereo not shown) [Example 35, 5-chloro-1-isobutyl-2-oxo-3-(3,4,5-trimethoxybenzyl)indolin-3-yl benzoate] |  |  | activity at 0.0008 µM (661W or C6 cells [1]): 55%; MTT, % protection (661W or C6 cells [2]; compound 800 pM): 113.5%,
COc1cc(CC2(O)C(=O)N(CC(C)C)c3ccc(C)cc32)cc(OC)c1OC (stereo not shown) [Example 37, 3-hydroxy-1-isobutyl-5-methyl-3-(3,4,5-trimethoxybenzyl)indolin-2-one] |  | 65 | MTT, % protection (661W or C6 cells [2]; compound 800 pM): 68.4%,
CCN1C(=O)C(Cc2cc(OC)cc(OC)c2)(OC(=O)c2ccccc2)c2cc(C)ccc21 (stereo not shown) [Example 38, 3-(3,5-dimethoxybenzyl)-1-ethyl-5-methyl-2-oxoindolin-3-yl benzoate] | 84.1%, | 78 | 
COc1cc(CC2(OC(=O)c3ccccc3)C(=O)N(CCc3ccccc3)c3ccc(C)cc32)cc(OC)c1 (stereo not shown) [Example 39, 3-(3,5-dimethoxybenzyl)-5-methyl-2-oxo-1-phenethylindolin-3-yl benzoate] | 83.2%, | 66 | 
CCN1C(=O)C(Cc2cccc(OC)c2)(OC(=O)c2ccccc2)c2cc(Cl)ccc21 (stereo not shown) [Example 40, 5-chloro-1-ethyl-3-(3-methoxybenzyl)-2-oxoindolin-3-yl benzoate] | 81.1%, | 66 | 
CCCCN1C(=O)C(O)(Cc2cc(OC)cc(OC)c2)c2cc(Cl)ccc21 (stereo not shown) [Example 41, 1-butyl-5-chloro-3-(3,5-dimethoxybenzyl)-3-hydroxyindolin-2-one] |  | 79 | MTT, % protection (661W or C6 cells [2]; compound 1 μM): 66.8%,
CCCCN1C(=O)C(O)(Cc2cccc(OC)c2)c2cc(Cl)ccc21 (stereo not shown) [Example 42, 1-butyl-5-chloro-3-hydroxy-3-(3-methoxybenzyl)indolin-2-one] | 69.8%, | 71 | 
CCCN1C(=O)C(O)(Cc2cccc(OC)c2)c2cc(C)ccc21 (stereo not shown) [Example 43, 3-hydroxy-3-(3-methoxybenzyl)-5-methyl-1-propylindolin-2-one] | 64.8%, | 69 | 
COc1cc(CC2(O)C(=O)N(CC(C)C)c3ccccc32)cc(OC)c1OC (stereo not shown) [Example 48, 3-hydroxy-1-isobutyl-3-(3,4,5-trimethoxybenzyl)indolin-2-one] | 91%, | 85 | 
COc1cc(CC2(OC(=O)c3ccccc3)C(=O)N(CCc3ccccc3)c3ccc(Cl)cc32)cc(OC)c1OC (stereo not shown) [Example 50, 5-chloro-2-oxo-1-phenethyl-3-(3,4,5-trimethoxybenzyl)indolin-3-yl benzoate] | 79.2%, | 65 | 
CCN1C(=O)C(O)(Cc2ccc(OC)cc2)c2cc(C)ccc21 (stereo not shown) [Example 51, 1-ethyl-3-hydroxy-3-(4-methoxybenzyl)-5-methylindolin-2-one] | 62.2%, | 65 | 
COc1ccc(CC2(OC(=O)c3ccccc3)C(=O)N(CCCC(C)C)c3ccc(C)cc32)c(O)c1 (stereo not shown) [Example 53, 3-(2-hydroxy-4-methoxybenzyl)-5-methyl-1-(4-methylpentyl)-2-oxoindolin-3-yl benzoate] | 100%, | 91 | 
COc1ccc(CC2(OC(=O)c3ccccc3)C(=O)N(CCCN3CCOCC3)c3ccc(Cl)cc32)c(O)c1 (stereo not shown) [Example 56, 5-chloro-3-(2-hydroxy-4-methoxybenzyl)-1-(3-morpholinopropyl)-2-oxoindolin-3-yl benzoate] | 85.3%, | 68 | 
COc1ccc(O)c(CC2(OC(=O)c3ccccc3)C(=O)N(CCc3ccccc3)c3ccc(Cl)cc32)c1 (stereo not shown) [Example 61, 5-chloro-3-(2-hydroxy-5-methoxybenzyl)-2-oxo-1-phenethylindolin-3-yl benzoate] | 87.1%, | 67 | 
CCN1C(=O)C(Cc2cc(OC)ccc2O)(OC(=O)c2ccccc2)c2cc(Cl)ccc21 (stereo not shown) [Example 62, 5-chloro-1-ethyl-3-(2-hydroxy-5-methoxybenzyl)-2-oxoindolin-3-yl benzoate] |  |  | activity at 0.0008 µM (661W or C6 cells [1]): 70%; MTT, % protection (661W or C6 cells [2]; compound 800 pM): 86.4%,
CCCN1C(=O)C(Cc2c[nH]c3ccccc23)(OC(=O)c2ccccc2)c2cc(Cl)ccc21 (stereo not shown) [Example 63, 3-((1H-indol-3-yl)methyl)-5-chloro-2-oxo-1-propylindolin-3-yl benzoate] | 120%, | 78 | 
CCCCN1C(=O)C(Cc2c[nH]c3ccccc23)(OC(=O)c2ccccc2)c2ccccc21 (stereo not shown) [Example 65, 3-((1H-indol-3-yl)methyl)-1-butyl-2-oxoindolin-3-yl benzoate] |  |  | activity at 0.0005 µM (661W or C6 cells [1]; compound 500 pM): 61%; MTT, % protection (661W or C6 cells [2]; compound 500 pM): 135%,
